{"source": "paper PMC7206119", "about": "“RIP1 inhibition blocks inflammatory diseases but not tumor growth or metastases” (Cell Death and Differentiation, 2019)", "experiment_in_all_cases": "biochemical", "design_in_all_cases": "Thermo Fisher SelectScreen kinase panel: Z'-LYTE and Adapta activity, LanthaScreen binding", "key": {"KDR": {"target": "KDR (Homo sapiens, UniProt P35968)", "protocol": "(§1) 5 88 GNE684 was tested in Thermo Fisher Scientific SelectScreen assay (Madison, WI) 89 against 221 representative kinases at a concentration of 10 µM, which is 476-fold greater than the Ki app 90 for GNE684 against human RIP1 in the RIP1 enzyme 91 assay. The kinase assays were carried out using Z'-LYTE and Adapta activity and 92 LanthaScreen binding assays (Thermo Fisher Scientific, Madison WI) following 93 protocols developed and performed by Thermo Fisher Scientific 94 (https://www.thermofisher.com/us/en/home/products-and-services/services/custom-95 services/screening-and-profiling-services/selectscreen-profiling-service/selectscreen-96 kinase-profiling-service.html). 97 GNE684 was also tested against 468 kinases in the KINOMEscan scanMAX kinase 98 binding assay panel at a concentration of 10 µM following protocols developed and 99 performed by DiscoverX (http://www.discoverx.com/kinase_profiling)."}, "CHK2": {"target": "T1, CHK2 (Homo sapiens, UniProt O96017)", "T1 construct": "gene CHEK2", "protocol": "as §1"}, "EPHA8": {"target": "EPHA8 (Homo sapiens, UniProt P29322)", "protocol": "as §1"}, "ACVR1B": {"target": "ACVR1B (Homo sapiens, UniProt P36896)", "sequence (P36896 whole entry)": "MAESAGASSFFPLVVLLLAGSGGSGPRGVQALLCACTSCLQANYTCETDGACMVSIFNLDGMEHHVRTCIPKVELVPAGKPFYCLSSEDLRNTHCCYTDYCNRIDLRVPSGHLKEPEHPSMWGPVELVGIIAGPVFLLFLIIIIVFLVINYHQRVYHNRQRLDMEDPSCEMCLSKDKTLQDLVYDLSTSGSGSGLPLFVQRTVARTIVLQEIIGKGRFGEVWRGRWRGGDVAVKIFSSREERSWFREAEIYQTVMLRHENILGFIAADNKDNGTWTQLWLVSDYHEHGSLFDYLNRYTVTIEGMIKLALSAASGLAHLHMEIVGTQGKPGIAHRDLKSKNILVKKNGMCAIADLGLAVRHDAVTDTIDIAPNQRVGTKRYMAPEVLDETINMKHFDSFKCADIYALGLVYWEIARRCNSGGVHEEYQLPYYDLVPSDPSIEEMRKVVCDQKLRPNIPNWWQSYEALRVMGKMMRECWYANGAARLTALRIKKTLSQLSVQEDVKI", "protocol": "as §1"}, "BMPR1A": {"target": "BMPR1A (Homo sapiens, UniProt P36894)", "sequence (P36894 whole entry)": "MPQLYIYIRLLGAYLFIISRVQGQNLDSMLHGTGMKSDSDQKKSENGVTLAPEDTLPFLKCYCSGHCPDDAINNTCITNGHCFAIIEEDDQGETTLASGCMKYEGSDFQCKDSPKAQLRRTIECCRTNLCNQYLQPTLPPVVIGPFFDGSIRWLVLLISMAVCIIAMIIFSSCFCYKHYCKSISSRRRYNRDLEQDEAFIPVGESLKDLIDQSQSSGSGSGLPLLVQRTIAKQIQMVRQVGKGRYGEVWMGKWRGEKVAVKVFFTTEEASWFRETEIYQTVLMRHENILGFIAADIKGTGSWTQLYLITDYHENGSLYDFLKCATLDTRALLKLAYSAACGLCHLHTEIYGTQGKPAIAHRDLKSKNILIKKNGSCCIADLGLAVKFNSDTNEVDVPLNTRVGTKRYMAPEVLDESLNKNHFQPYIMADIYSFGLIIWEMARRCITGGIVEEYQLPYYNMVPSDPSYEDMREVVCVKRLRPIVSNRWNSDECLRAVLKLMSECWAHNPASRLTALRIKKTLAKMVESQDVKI", "protocol": "as §1"}, "ERBB2": {"target": "ERBB2 (Homo sapiens, UniProt P04626)", "protocol": "as §1"}, "BLK": {"target": "BLK (Homo sapiens, UniProt P51451)", "protocol": "as §1"}, "HIPK4": {"target": "HIPK4 (Homo sapiens, UniProt Q8NE63)", "protocol": "as §1"}, "PAK4": {"target": "PAK4 (Homo sapiens, UniProt O96013)", "protocol": "as §1"}, "FGFR3": {"target": "FGFR3 (Homo sapiens, UniProt P22607)", "protocol": "as §1"}, "eEF-2K": {"target": "T2, eEF-2K (Homo sapiens, UniProt O00418)", "T2 construct": "gene EEF2K", "protocol": "as §1"}, "GRK6": {"target": "GRK6 (Homo sapiens, UniProt P43250)", "sequence (P43250 whole entry)": "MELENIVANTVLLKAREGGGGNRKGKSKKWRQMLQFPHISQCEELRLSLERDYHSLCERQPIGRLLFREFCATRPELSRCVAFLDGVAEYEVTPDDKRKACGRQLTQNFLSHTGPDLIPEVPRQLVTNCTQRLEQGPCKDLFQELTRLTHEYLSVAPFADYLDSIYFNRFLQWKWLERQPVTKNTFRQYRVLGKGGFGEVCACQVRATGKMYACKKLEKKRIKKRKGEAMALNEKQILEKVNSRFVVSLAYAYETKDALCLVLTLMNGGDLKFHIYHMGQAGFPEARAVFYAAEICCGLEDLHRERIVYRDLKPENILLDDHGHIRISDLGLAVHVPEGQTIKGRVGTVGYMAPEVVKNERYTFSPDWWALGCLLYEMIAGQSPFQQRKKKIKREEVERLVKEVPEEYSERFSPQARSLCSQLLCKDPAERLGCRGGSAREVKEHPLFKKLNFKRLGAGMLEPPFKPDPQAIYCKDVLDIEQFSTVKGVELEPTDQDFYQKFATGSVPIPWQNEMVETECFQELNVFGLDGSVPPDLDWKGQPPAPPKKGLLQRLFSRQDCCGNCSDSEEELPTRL", "protocol": "as §1"}, "NEK1": {"target": "NEK1 (Homo sapiens, UniProt Q96PY6)", "sequence (Q96PY6 whole entry)": "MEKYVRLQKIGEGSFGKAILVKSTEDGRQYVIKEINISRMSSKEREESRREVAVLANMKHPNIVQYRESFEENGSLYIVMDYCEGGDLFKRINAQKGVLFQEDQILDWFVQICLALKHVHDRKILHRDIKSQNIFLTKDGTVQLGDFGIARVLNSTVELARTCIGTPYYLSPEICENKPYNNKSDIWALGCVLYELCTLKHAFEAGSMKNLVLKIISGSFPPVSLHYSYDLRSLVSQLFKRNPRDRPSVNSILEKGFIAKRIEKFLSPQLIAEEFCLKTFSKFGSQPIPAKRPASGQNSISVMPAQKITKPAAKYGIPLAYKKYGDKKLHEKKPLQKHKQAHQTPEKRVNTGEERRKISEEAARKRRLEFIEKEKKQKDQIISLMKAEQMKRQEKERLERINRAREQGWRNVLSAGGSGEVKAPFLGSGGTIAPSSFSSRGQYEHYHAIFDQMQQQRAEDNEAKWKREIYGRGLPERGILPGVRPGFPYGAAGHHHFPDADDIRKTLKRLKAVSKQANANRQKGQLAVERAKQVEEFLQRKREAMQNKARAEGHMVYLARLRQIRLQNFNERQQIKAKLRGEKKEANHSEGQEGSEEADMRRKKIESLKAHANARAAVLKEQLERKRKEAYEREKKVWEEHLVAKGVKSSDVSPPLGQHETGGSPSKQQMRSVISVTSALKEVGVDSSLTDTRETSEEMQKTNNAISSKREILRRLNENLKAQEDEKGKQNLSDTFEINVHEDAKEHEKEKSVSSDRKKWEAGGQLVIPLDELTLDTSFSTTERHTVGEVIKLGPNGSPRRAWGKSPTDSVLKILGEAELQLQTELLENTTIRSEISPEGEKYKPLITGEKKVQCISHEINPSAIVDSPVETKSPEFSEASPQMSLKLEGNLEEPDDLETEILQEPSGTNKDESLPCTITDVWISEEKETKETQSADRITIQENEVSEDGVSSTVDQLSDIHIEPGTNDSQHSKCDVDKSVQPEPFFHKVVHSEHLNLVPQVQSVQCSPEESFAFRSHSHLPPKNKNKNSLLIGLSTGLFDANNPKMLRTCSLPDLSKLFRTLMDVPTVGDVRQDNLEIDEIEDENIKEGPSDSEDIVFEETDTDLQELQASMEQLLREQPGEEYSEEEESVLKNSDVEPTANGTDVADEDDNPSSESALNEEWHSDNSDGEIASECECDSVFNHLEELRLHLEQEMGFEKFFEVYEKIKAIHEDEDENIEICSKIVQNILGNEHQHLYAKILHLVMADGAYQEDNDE", "protocol": "as §1"}, "FGFR1": {"target": "FGFR1 (Homo sapiens, UniProt P11362)", "sequence (P11362 whole entry)": "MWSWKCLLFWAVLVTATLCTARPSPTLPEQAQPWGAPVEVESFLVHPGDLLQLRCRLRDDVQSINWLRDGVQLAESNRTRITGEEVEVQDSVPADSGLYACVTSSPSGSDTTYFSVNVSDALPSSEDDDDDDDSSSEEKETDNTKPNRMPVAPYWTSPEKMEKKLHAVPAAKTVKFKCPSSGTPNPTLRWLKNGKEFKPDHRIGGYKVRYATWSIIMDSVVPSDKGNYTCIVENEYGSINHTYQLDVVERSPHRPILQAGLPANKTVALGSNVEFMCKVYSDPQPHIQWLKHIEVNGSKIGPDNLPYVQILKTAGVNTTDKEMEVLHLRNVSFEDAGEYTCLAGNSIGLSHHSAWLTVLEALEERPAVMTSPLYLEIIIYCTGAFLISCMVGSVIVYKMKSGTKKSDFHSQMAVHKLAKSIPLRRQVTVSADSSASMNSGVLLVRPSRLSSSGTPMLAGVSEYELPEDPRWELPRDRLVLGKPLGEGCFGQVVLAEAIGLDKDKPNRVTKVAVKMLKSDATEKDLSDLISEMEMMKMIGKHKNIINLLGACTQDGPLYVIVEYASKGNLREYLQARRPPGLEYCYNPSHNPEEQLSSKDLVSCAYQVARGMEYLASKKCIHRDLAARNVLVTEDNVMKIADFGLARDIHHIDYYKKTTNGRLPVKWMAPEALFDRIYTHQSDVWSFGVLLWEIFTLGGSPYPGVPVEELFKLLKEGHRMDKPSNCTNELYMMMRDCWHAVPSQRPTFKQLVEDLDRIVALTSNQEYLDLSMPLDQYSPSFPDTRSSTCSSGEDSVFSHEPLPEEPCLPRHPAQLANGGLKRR", "protocol": "as §1"}, "FGR": {"target": "FGR (Homo sapiens, UniProt P09769)", "sequence (P09769 whole entry)": "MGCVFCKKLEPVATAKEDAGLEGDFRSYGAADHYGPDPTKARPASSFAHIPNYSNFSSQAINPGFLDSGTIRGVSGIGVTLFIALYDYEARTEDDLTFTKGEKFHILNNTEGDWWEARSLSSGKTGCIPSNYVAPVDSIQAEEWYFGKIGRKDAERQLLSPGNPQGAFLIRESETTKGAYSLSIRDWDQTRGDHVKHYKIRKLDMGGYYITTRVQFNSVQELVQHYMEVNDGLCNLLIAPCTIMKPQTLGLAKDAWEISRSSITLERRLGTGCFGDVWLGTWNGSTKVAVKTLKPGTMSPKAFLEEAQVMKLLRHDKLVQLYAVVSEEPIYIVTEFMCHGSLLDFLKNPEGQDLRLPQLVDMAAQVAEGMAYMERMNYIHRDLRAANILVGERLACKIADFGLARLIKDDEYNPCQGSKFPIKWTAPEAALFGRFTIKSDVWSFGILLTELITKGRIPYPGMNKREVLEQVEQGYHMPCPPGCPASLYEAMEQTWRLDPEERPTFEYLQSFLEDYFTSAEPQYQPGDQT", "protocol": "as §1"}, "Rse": {"target": "T3, Rse (Homo sapiens, UniProt Q06418)", "T3 construct": "gene TYRO3", "protocol": "as §1"}, "HCK": {"target": "HCK (Homo sapiens, UniProt P08631)", "protocol": "as §1"}, "CK1_epsilon1": {"target": "T4, CK1_epsilon1 (Homo sapiens, UniProt P49674)", "T4 construct": "gene CSNK1E", "T4 sequence (P49674 whole entry)": "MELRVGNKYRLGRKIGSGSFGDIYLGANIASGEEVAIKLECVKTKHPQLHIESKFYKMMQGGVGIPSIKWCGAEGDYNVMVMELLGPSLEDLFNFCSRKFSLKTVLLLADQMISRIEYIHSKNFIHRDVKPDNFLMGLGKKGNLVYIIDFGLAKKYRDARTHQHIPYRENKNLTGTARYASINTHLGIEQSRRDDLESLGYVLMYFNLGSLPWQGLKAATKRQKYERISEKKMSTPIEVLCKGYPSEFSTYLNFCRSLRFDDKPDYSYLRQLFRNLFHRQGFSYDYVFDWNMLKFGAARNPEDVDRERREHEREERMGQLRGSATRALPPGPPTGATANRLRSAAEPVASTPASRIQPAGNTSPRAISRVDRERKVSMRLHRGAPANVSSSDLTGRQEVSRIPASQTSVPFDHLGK", "protocol": "as §1"}, "STK33": {"target": "STK33 (Homo sapiens, UniProt Q9BYT3)", "protocol": "as §1"}, "CLK4": {"target": "CLK4 (Homo sapiens, UniProt Q9HAZ1)", "protocol": "as §1"}, "SYK": {"target": "SYK (Homo sapiens, UniProt P43405)", "protocol": "as §1"}, "PAK6": {"target": "PAK6 (Homo sapiens, UniProt Q9NQU5)", "protocol": "as §1"}, "SGK2": {"target": "SGK2 (Homo sapiens, UniProt Q9HBY8)", "sequence (Q9HBY8 whole entry)": "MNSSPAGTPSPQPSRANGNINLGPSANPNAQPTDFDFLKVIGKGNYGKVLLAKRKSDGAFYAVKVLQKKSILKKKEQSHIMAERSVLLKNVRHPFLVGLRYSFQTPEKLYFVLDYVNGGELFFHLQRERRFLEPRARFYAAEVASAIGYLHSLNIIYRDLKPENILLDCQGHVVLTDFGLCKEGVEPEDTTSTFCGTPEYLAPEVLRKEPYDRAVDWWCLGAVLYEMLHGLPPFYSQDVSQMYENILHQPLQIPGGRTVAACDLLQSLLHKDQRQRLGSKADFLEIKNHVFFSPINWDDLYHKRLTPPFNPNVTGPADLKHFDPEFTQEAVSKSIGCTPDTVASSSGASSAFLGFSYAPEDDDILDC", "protocol": "as §1"}}}
{"compound": "COc1cc2c(cn1)N(C)C(=O)[C@@H](NC(=O)c1nc3n(n1)[C@H](c1ccccc1)CC3)CC2", "note": "[GNE684, (S)-N-((S)-7-methoxy-1-methyl-2-oxo-2,3,4,5-tetrahydro-1H-pyrido[3,4-b]azepin-3-yl)-5-phenyl-6,7-dihydro-5H-pyrrolo[1,2-b][1,2,4]triazole-2-carboxamide]", "values": [{"measurement": "inhibition at 10 µM", "setting": "KDR", "result": -0.5, "unit": "%"}, {"measurement": "inhibition at 10 µM", "setting": "CHK2", "result": 5, "unit": "%"}, {"measurement": "inhibition at 10 µM", "setting": "EPHA8", "result": 5.5, "unit": "%"}, {"measurement": "inhibition at 10 µM", "setting": "ACVR1B", "result": -2, "unit": "%"}, {"measurement": "inhibition at 10 µM", "setting": "BMPR1A", "result": -4.5, "unit": "%"}, {"measurement": "inhibition at 10 µM", "setting": "ERBB2", "result": -5.5, "unit": "%"}, {"measurement": "inhibition at 10 µM", "setting": "BLK", "result": 6.5, "unit": "%"}, {"measurement": "inhibition at 10 µM", "setting": "HIPK4", "result": 11.5, "unit": "%"}, {"measurement": "inhibition at 10 µM", "setting": "PAK4", "result": 14, "unit": "%"}, {"measurement": "inhibition at 10 µM", "setting": "FGFR3", "result": -1.5, "unit": "%"}, {"measurement": "inhibition at 10 µM", "setting": "eEF-2K", "result": 0, "unit": "%"}, {"measurement": "inhibition at 10 µM", "setting": "GRK6", "result": 6.5, "unit": "%"}, {"measurement": "inhibition at 10 µM", "setting": "NEK1", "result": 7.5, "unit": "%"}, {"measurement": "inhibition at 10 µM", "setting": "FGFR1", "result": -2, "unit": "%"}, {"measurement": "inhibition at 10 µM", "setting": "FGR", "result": 8, "unit": "%"}, {"measurement": "inhibition at 10 µM", "setting": "Rse", "result": 5, "unit": "%"}, {"measurement": "inhibition at 10 µM", "setting": "HCK", "result": 5, "unit": "%"}, {"measurement": "inhibition at 10 µM", "setting": "CK1_epsilon1", "result": 5, "unit": "%"}, {"measurement": "inhibition at 10 µM", "setting": "STK33", "result": 0, "unit": "%"}, {"measurement": "inhibition at 10 µM", "setting": "CLK4", "result": 2.5, "unit": "%"}, {"measurement": "inhibition at 10 µM", "setting": "SYK", "result": -1.5, "unit": "%"}, {"measurement": "inhibition at 10 µM", "setting": "PAK6", "result": 4.5, "unit": "%"}, {"measurement": "inhibition at 10 µM", "setting": "SGK2", "result": 5.5, "unit": "%"}]}
